Measured values from patent publication US20040071656A1, “Modulation of heat-shock-protein-based immunotherapies” (priority 2001, published 2004).
One block for each substance: values may come before it. No end group written: not given here. *: point of attachment. FITC = O=C1OC2(c3ccc(O)cc3Oc3cc(O)ccc32)c2ccc(NC(=S)*)cc21

Experiments:
[1] = target: T1, exoplasmic domain of human CD40 (GST-CD40) (Homo sapiens, UniProt P25942); assay: GST-CD40 pull-down of endogenous heat shock proteins from Hela cell lysate; format: binding; conditions: 80 or 400 pmol GST-CD40, immunoblot
T1 construct: The cDNA for the exoplasmic domain of CD40 (amino acids 20-212); made in house; host or cells: E. coli, pGEX-2T
T1 sequence (P25942 20-212): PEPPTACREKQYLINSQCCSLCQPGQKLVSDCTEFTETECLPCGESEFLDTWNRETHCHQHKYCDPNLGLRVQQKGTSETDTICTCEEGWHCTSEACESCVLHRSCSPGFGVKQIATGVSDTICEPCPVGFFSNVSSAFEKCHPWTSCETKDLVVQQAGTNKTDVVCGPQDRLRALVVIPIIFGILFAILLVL
Description: Binding assays with GST-CD40. For binding of endogenous Hsp70 and Hsc70 from Hela cell lysate, Hela cells were lysed as described above and centrifuged at 100,000 g at 4° C. for 1 h. 20 μl bed volume of Glutathione Sepharose 4 Fast Flow (Amersham Pharmacia) per sample were preincubated with 80 pmol or 400 pmol of GST or GST-CD40 fusion protein in 50 μl binding buffer. Unbound protein was removed by washing three times with PBS. The beads were treated with 1% BSA/PBS to avoid non-specific binding, and than incubated with 150 μl of Hela cell lysate in the presence of 2 mM DTT for 20 min at 16° C. […] 10 μl of the eluates was subjected to SDS-PAGE and analyzed by immunoblotting using an anti-Hsc/Hsp70 antibody and an anti-Hsp90: antibody (SPA822 and SPA835, Stressgen). […]
Details for FIG. 3. […] Thereafter samples were affinity purified on glutathione-Sepharose as outlined in Experimental Procedures, subjected to SDS-PAGE and analyzed by immunoblotting with antibodies directed against Hsc70 and Hsp70 (upper lanes), and against Hsp90 (lower lanes). […] After affinity purification samples were analyzed by immunoblotting as described in A, using antibodies directed against the His6-tag. […] Protein bound to Hsp70 was analyzed by affinity purification on Ni-NTA-agarose and immunoblotting with antibodies directed against CD40.

human CD40 [2] = target: T2, human CD40 (Homo sapiens, UniProt P25942); assay: Binding to Cos-7 cells transiently transfected with human CD40 cDNA, fluorescence microscopy; format: cell-based; conditions: 250 nM biotinylated protein, 30 min at 0° C.
T2 construct: CD40 full-length cDNA was cloned by PCR; expressed in transfected cells
T2 sequence (P25942 21-277): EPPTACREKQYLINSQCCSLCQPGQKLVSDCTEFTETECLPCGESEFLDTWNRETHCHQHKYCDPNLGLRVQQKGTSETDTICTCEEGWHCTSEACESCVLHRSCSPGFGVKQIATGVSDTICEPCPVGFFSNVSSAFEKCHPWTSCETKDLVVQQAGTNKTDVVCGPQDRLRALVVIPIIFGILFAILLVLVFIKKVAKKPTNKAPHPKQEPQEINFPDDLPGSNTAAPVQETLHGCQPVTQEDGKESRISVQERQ
Description: Cell culture and fluorescence microscopy. The murine macrophage cell line ANA1 was kindly provided by H. Wagner (Munich, Germany). ANA-1 cells were cultured in VLE-RPMI 1640 (Biochrom), supplemented with 10% FCS, 2 mM L-glutamine and antibiotics. For fluorescence microscopy, ANA1 cells were either stimulated with LPS (20 μg/ml, Sigma, Germany), or kept in an LPS-free medium (mock treatment) for 7 h. After stimulation, cells were harvested and incubated with 100 nM biotinylated Hsp70, biotinylated GST, or Hsp70/peptide C-biotin complex for 30 min at 0° C. in VLE-RPMI 1640. After incubation cells were processed for staining with streptavidin-TRITC (Sigma, Germany), fixed with paraformaldehyde and analyzed by fluorescence microscopy (Axiovert 35, Zeiss) as described (Sondermann et al., 2000). […] Twenty-four h post-transfection cells were incubated with 250 nM biotinylated Hsp70, biotinylated GST or Hsp70/peptide C-biotin complex for 30 min at 0° C. in DMEM, fixed, stained with streptavidin-TRITC (Sigma, Germany), and analyzed by fluorescence microscopy as described (Sondermann et al., 2000, idem). […] Stably transfected cell lines were analyzed by immunoblotting for CD40 expression using an anti-CD40 antibody (CSA180, Stressgen). […]
Mock-treated and LPS-stimulated ANA-1 cells were analyzed for their expression of CD40. […]

Hsp70 = conditions: Greene et al., 1995; read-out: affinity of peptide C for Hsp70; cited from earlier work
[3] = target: T1, exoplasmic domain of human CD40 (GST-CD40); assay: GST-CD40 binding and competition assay with recombinant Hsp70 and its domains
Description: For binding assays with recombinant Hsp70 and its domains, 3 μM His6-Hsp70 or its His6-tagged domains were incubated with 2 mM ATP, 2 mM ADP or 2 mM ADP and 28 μM peptide C in 50 μl binding buffer (10 mM MOPS/KOH, pH 7.2, 150 mM KCl and 3 mM MgCl2) for 30 min at 37° C. In competition experiments binding was probed with either a 10-fold excess of Hsp70, the two domains, or DnaK, or with a 5-fold excess of Hip or Bag 1 for 10 min at 0° C. To this end, Hsp70, N70, C70 and DnaK were preincubated with ADP, ATP and peptide C as described above. For comparison of CD40 binding of Hsp70 and its N-terminal domain, Hsp70 was preincubated in the presence or absence (mock treatment) of a 30-fold molar excess of peptide C. 3 μM of GST or GST-CD40 was added to the samples and incubated for 20 min at 16° C. For titration of peptide C, 5- to 50-fold excess of peptide C (15-150 μM) was added to the preincubation of Hsp70. Thereafter the samples were combined with 20 μl of 1% BSA-treated Glutathione Sepharose 4 Fast Flow and incubated in the presence of 2 mM DTT for another 20 min at 16° C. Unbound proteins were removed by washing the beads three times with 1 ml PBS, and immobilized proteins eluted with 30 μl elution buffer for 20 min at 22° C. 10 μl of the eluates were subjected to SDS-PAGE and analyzed by immunoblotting using a Penta-His-antibody (Quiagen). Blot signals were quantified by Quantity One (Biorad).
Details for FIG. 3. Binding of Hsp70 to CD40 is direct and depends on ADP. A. Hela-cell lysates were incubated with GST (control), or GST-CD40 in the amounts indicated. Thereafter samples were affinity purified on glutathione-Sepharose as outlined in Experimental Procedures, subjected to SDS-PAGE and analyzed by immunoblotting with antibodies directed against Hsc70 and Hsp70 (upper lanes), and against Hsp90 (lower lanes). B. Human recombinant His6-tagged Hsp70 was incubated with ATP, ADP, or an excess of peptide C, followed by addition of GST-CD40 or GST alone. After affinity purification samples were analyzed by immunoblotting as described in A, using antibodies directed against the His6-tag. C. Recombinant human His6-tagged Hsp70 was incubated with peptide C, either in the presence or absence of ADP. The reactions were then incubated with ANA1-cell lysates as described in Experimental Procedures. Protein bound to Hsp70 was analyzed by affinity purification on Ni-NTA-agarose and immunoblotting with antibodies directed against CD40.
Details for FIG. 4. Hsp70 binding to CD40 is mediated by the N-terminal ATPase domain and is competed by Hip. A. Human His6-tagged Hsp70, its N- or C-terminal domains, or recombinant bacterial DnaK was incubated either with GST-CD40, or with GST. B. Recombinant DnaK was incubated with ATP, ADP, or an excess of peptide C, followed by addition of GST-CD40 or GST alone. C. His6-tagged N-terminal domain of Hsp70 (N70) was incubated in the presence of ATP or ADP, followed by incubation with a 10-fold molar excess of Hsp70 in the presence of ADP or ATP. D: Recombinant human His6-tagged Hsp70 protein was incubated with a 5-fold molar excess of either recombinant Hip protein or Bag-1, and with GST-CD40 or GST as a control. Bound protein was analyzed after affinity purification on glutathione-Sepharose by immunoblotting with an antibody directed against the N-terminal His6-tags or with an antibody directed against DnaK.
Details for FIG. 5. Peptide substrate stimulates Hsp70 binding to CD40. A. His6-tagged Hsp70 was incubated with increasing concentrations of peptide C as indicated in the Figure, and binding to GST-CD40 analyzed by immunoblotting with antibodies directed against the His6-tag. The lower panel is a quantitation of the data. B. Equivalent concentrations (3 μM) of His6-tagged Hsp70 (in the presence of a 30-fold molar excess of peptide C) or His6-tagged N70 was incubated with GST-CD40, and bound protein was analyzed as described above.

human CD40 [4] = target: T2, human CD40; assay: Uptake of peptide C-FITC in HEK293T-CD40 cells, confocal microscopy; format: cell-based; conditions: 0.5 μM protein, 5 μM peptide C-FITC, ADP, 30 min 0° C. then 15 min 37° C.
Description: For experiments to study uptake of Hsp70/peptide C-FITC complex, HEK293T-CD40 and HEK293T-MCAT cells were seeded on collagen-coated cover slips 24 h prior to the experiment. For complex formation Hsp70, its N-terminal domain (N70) or its C-terminal domain (C70) were preincubated with a 10-fold molar excess of peptide C-FITC for 30 min at 37° C., as described above for the biotinylated proteins. HEK293T-CD40 and HEK293T-MCAT were incubated with 0.5 μM of Hsp70, N70 or C70, preincubated with 2 mM ADP and 5 μM peptide C-FITC, or 5 μM peptide C-FITC alone for 30 min on ice. Thereafter the cells were washed three times with medium, incubated for 15 min at 37° C., and fixed, embedded in Fluoromount-G and analyzed by confocal microscopy (LSM 510, Zeiss).
Next, the binding of Hsp70-peptide complex to CD40 was studied, which results in the uptake of peptide. To this end, HEK293T-CD40 cells and HE293T-MCAT cells (not expressing CD40) were incubated with a fluorescent (FITC) derivative of peptide C for 30 min at 0° C. in the presence of ADP, with or without Hsp70 or its two domains. After removal of excess material, the cells were incubated at 37° C. for 15 min, fixed and then analyzed by fluorescence microscopy. […] (FIG. 6B, panel 1). […] Neither did HEK293T-MCAT control cells give rise to a signal under any of the conditions tested (not shown). We conclude that the specific interaction of CD40 with Hsp70-peptide complex mediates the uptake of peptide.
Details for FIG. 6. Binding of Hsp70 complex to CD40-expressing HEK293T cells induces signaling via p38 and causes peptide uptake. A. HEK293T-cells, stably transfected with cDNA encoding human CD40 or the unrelated membrane protein murine cationic amino acid transporter (MCAT) were incubated for 20 min at 37° C. with CD40L or with Hsp70, C70, N70, bacterial DnaK either in the presence of ADP or AMPPNP, or buffer alone. Thereafter cells were washed, solubilized in SDS-sample buffer, and analyzed by immunoblotting with antibodies directed against phosphorylated (active) p38. Blots were also developed with an antibody against tubulin in order to control for equal loading. B. Cells were incubated at 0° C. for 30 min with recombinant human Hsp70, N70, or C70, all in the presence FITC-labeled peptide, or with the FITC-labeled peptide alone. Thereafter cells were washed, incubated for 15 min at 37° C., and processed for fluorescence microscopy. Upper left panel: Hsp70, upper right panel: FITC-labeled peptide alone, lower left panel: C70, lower right panel: N70. Only cells stably transfected with CD40 are shown. Cell boundaries are emphasized with broken lines.

Substance: Hsc70: Endogenous mammalian Hsp70 family member in Hela-cell lysates
- binding to GST-CD40 from Hela-cell lysates [1]: bound to GST-CD40 in a concentration dependent manner

- binding to CD40-transfected Cos-7 cells (human CD40 [2]): no binding above background
- effect of peptide C on binding of Hsp70-ADP to CD40 ([3]; 5- to 50-fold excess of peptide C (15-150 μM), ADP): increased dramatically
- competition of peptide C with the Hsp70-CD40 interaction ([3]; molar excess of peptide C over Hsp70, ADP): did not compete with the interaction
- ka of the saturable effect of peptide on Hsp70-ADP binding to CD40 ([3]; titration of peptide C, 3 μM Hsp70, ADP): ~30 µM
Substance: GCEVFGLGWRSYKH [peptide C, reference compound]
- Kd (Hsp70): 5 to 10 µM
- effect of peptide C on binding of DnaK to CD40 ([3]; 10-fold molar excess of peptide C): almost completely abolishes the binding of DnaK to CD40

Substance: C70: Recombinant C-terminal peptide-binding domain of human Hsp70, residues 382-641
- uptake of fluorescent (FITC) peptide C into HEK293T-CD40 cells (human CD40 [4]): did not result in a peptide signal above background
- competition for the binding of full-length Hsp70 to CD40 ([3]; ADP, 5-fold molar excess of competitor): neither the C-terminal Hsp70 domain (C70) nor DnaK had a significant effect on binding

- uptake of fluorescent (FITC) peptide C into HEK293T-CD40 cells (human CD40 [4]): No staining above background
Substance: FITC-GCEVFGLGWRSYKH ({FITC}-GCEVFGLGWRSYKH) [reference compound]
